The target of the assay is cholesterol biosynthesis (crude enzyme extracted from rat liver). Description: inhibition of cholesterol biosynthesis by crude enzyme extracted from rat liver (radioactive acetic acid, 37° C., 60 minutes; cholesterol precipitated with digitonin, radioactivity measured). The assay is classed as biochemical. The procedure: Crude enzyme extracted from rat liver was reacted with radioactive acetic acid at 37° C. for 60 minutes. The radioactive cholesterol thus biosynthesized was saponified and precipitated with digitonin, and the radioactivity was measured to determine the amount of cholesterol produced. The reaction was repeated, by adding one of the compounds of the invention listed in the following Table at the beginning of the reaction, and the amount of cholesterol biosynthesized was again determined, to give a quantitative measurement of the inhibitory effect of the compounds of the invention. The concentrations (μg/ml) of the compounds of the invention and of a known compound (clofibrate) which gave approximately 50% inhibition of cholesterol biosynthesis re reported in the following Table as I50 values [see Bricker et al, The Journal of Biological Chemistry, 247, 4914 (1972)]. The compounds of the invention are identified in the following Table by the numbers heretofore assigned to them.
Turning to `CCOC(=O)C(C)(C)Oc1ccc(Cl)cc1` [Clofibrate, clofibrate, reference compound], the “I50 (concentration which gave approximately 50% inhibition of cholesterol biosynthesis)” value was 250 to 300 µg/mL. For `CCOC(=O)CC(O)CC(O)CCc1ccccc1` (centres unmarked) [Compound 1, Ethyl 3,5-dihydroxy-7-phenylheptanoate] the value was 3.7 µg/mL. Take `CCOC(=O)CC(O)CC(O)CCc1ccc(Cl)cc1` (centres unmarked) [Compound 2, Ethyl 7-p-chlorophenyl-3,5-dihydroxyheptanoate]: the “I50 (concentration which gave approximately 50% inhibition of cholesterol biosynthesis)” value stood at 17.2 µg/mL. As to `CCOC(=O)CC(O)CC(O)CCc1cccc2ccccc12` (centres unmarked) [Compound 3, Ethyl 3,5-dihydroxy-7-(1-naphthyl)heptanoate], the “I50 (concentration which gave approximately 50% inhibition of cholesterol biosynthesis)” value came to 5.0 µg/mL.

Regarding `CCOC(=O)CC(O)CC(O)CCc1c(C)ccc2ccccc12` (centres unmarked) [Compound 4, Ethyl 3,5-dihydroxy-7-(2-methyl-1-naphthyl)heptanoate], the “I50 (concentration which gave approximately 50% inhibition of cholesterol biosynthesis)” value worked out at 0.24 µg/mL. With `CCOC(=O)CC(O)CC(O)CCc1c(C)ccc2c1CCCC2` (centres unmarked) [Compound 5, Ethyl 3,5-dihydroxy-7-(2-methyl-5,6,7,8-tetrahydro-1-naphthyl)heptanoate], the “I50 (concentration which gave approximately 50% inhibition of cholesterol biosynthesis)” value is 1.56 µg/mL. In the case of `CCOC(=O)CC(O)CC(O)CCCc1cccc2ccccc12` (centres unmarked) [Compound 6, Ethyl 3,5-dihydroxy-8-(1-naphthyl)octanoate], the “I50 (concentration which gave approximately 50% inhibition of cholesterol biosynthesis)” value is 3.4 µg/mL. `CCOC(=O)CC(O)CC(O)CCCc1c(C)ccc2ccccc12` (centres unmarked) [Compound 7, Ethyl 3,5-dihydroxy-8-(2-methyl-1-naphthyl)octanoate]: the “I50 (concentration which gave approximately 50% inhibition of cholesterol biosynthesis)” value was determined as 1.2 µg/mL. For `CCOC(=O)CC(O)CC(O)C=Cc1ccccc1` (centres unmarked) [Compound 8, Ethyl 3,5-dihydroxy-7-phenylhept-6-enoate] the value was 9.0 µg/mL; for `CCOC(=O)CC(O)CC(O)C(C)Oc1ccccc1` (centres unmarked) [Compound 9, Ethyl 3,5-dihydroxy-6-phenoxyheptanoate], 23 to 50 µg/mL; for `CCOC(=O)CC(O)CC(O)COc1ccccc1Cl` (centres unmarked) [Compound 10, Ethyl 6-(o-chlorophenoxy)-3,5-dihydroxyhexanoate], 5 to 15.2 µg/mL.
